Source: patent publication US10016469B2, “Composition comprising antifungal agents for treating vulvovaginitis and vaginosis” (Two Lines Co., Ltd., priority 2015, dated 2018)

Key:
[1] = test system: G. vaginalis, standard microorganism (ATCC 14018); test: Antibiotic disk diffusion assay; assay type: cell-based, Gardnerella vaginalis; conditions: G. vaginalis ATCC 14018, Columbia agar with 5% human red blood cell solution
Experimental: To screen antibiotics to which Gardnerella vaginalis (G. vaginalis) is sensitive, and are resistant to probiotics, antibiotics were tested using a disk diffusion assay.
(§1) Columbia agar containing a 5% human red blood cell solution was used as a media for Gardnerella vaginalis (G. vaginalis, ATCC 14018) and a MRS agar was used as a media for the strains of the present invention (S. denitnficans YH1 and L. crispatus YH2). As the antibiotic disk, a product manufactured by OXIOD was used.
(§2) As described above, augmentin, metronidazole, and clindamycin were applied to a wild-type Gardnerella vaginalis (G. vaginalis) strain obtained from 33 patients suffering from bacterial vaginosis and a standard microorganism (ATCC 14018) and subjected to a test using a disk diffusion assay.

S. denitrificans YH1 = test: Antibiotic disk diffusion assay; assay type: cell-based; conditions: S. denitrificans YH1, MRS agar
Experimental: as §1, with “To screen antibiotics to which Gardnerella vaginalis (G. vaginalis) is sensitive, and are resistant to probiotics, antibiotics were tested using a disk diffusion assay. Columbia” for “Columbia”, “([…]1” for “(S. denitnficans YH1”

L. crispatus YH2 = test: Antibiotic disk diffusion assay; assay type: cell-based, Lactobacillus crispatus; conditions: L. crispatus YH2, MRS agar
Experimental: as §1, with “To screen antibiotics to which Gardnerella vaginalis (G. vaginalis) is sensitive, and are resistant to probiotics, antibiotics were tested using a disk diffusion assay. Columbia” for “Columbia”, “([…]1” for “(S. denitnficans YH1”

[2] = test system: wild-type Gardnerella vaginalis (G. vaginalis) strain obtained from 33 patients suffering from bacterial vaginosis; test: Antibiotic disk diffusion assay on clinical isolates; assay type: cell-based; conditions: for Diameter of inhibition zone per antibiotic, Average ± SD: average over the G. vaginalis strains of Table 11
Text: as §1, §2

[3] = G. vaginalis strain 14-1, biotype 1
[4] = G. vaginalis strain 14-2, biotype 5
[5] = G. vaginalis strain 14-3, biotype 4
[6] = G. vaginalis strain 14-4, biotype 6
[7] = G. vaginalis strain 14-5, biotype 4
[8] = G. vaginalis strain 14-6, biotype 1
[9] = G. vaginalis strain 14-7, biotype 5
[10] = G. vaginalis strain 14-8, biotype 3
[11] = G. vaginalis strain 14-9, biotype 2
[12] = G. vaginalis strain 14-10, biotype 3
[13] = G. vaginalis strain 14-11, biotype 2
[14] = G. vaginalis strain 14-12, biotype 5
[15] = G. vaginalis strain 14-13, biotype 5
[16] = G. vaginalis strain 14-14, biotype 4
[17] = G. vaginalis strain 14-15, biotype 5
[18] = G. vaginalis strain 14-16, biotype 8
[19] = G. vaginalis strain 14-17, biotype 5
[20] = G. vaginalis strain 14-19, biotype 5
[21] = G. vaginalis strain 14-20, biotype 7
[22] = G. vaginalis strain 14-21, biotype 8
[23] = G. vaginalis strain 14-23, biotype 8
[24] = G. vaginalis strain 14-24, biotype 8
[25] = G. vaginalis strain 14-25, biotype 5
[26] = G. vaginalis strain 14-26, biotype 5
[27] = G. vaginalis strain 14-27, biotype 4
[28] = G. vaginalis strain 14-28, biotype 5
[29] = G. vaginalis strain 14-29, biotype 5
[30] = G. vaginalis strain 14-30, biotype 5
[31] = G. vaginalis strain 14-32, biotype 5
[32] = G. vaginalis strain 14-33, biotype 7
[33] = G. vaginalis strain 14-34, biotype 5
[34] = G. vaginalis strain 14-36, biotype 5
[35] = G. vaginalis strain 14-37, biotype 1

CC1(C)S[C@@H]2[C@H](NC(=O)C(C(=O)O)c3ccccc3)C(=O)N2[C@H]1C(=O)O (stereo partly shown) [Carbenicillin]
35 mm: diameter of inhibition zone (S. denitrificans YH1) | diameter of inhibition zone (L. crispatus YH2)
40 mm: diameter of inhibition zone [1]

CC1(C)S[C@@H]2[C@H](NC(=O)Cc3ccccc3)C(=O)N2[C@H]1C(=O)O [Penicillin G]
0 mm: diameter of inhibition zone (S. denitrificans YH1) | diameter of inhibition zone (L. crispatus YH2)
10 mm: diameter of inhibition zone [1]

Trimethoprim sulfamethoxazole
0 mm: diameter of inhibition zone [1] | diameter of inhibition zone (S. denitrificans YH1) | diameter of inhibition zone (L. crispatus YH2)

Cc1ncc([N+](=O)[O-])n1CCO [Metronidazole]
33 mm: Diameter of inhibition zone per antibiotic [2, 23]
64%: share of wild-type G. vaginalis strains on which no inhibitory effect was shown ([2]; 21 of 33 wild-type strains, metronidazole 50 μg/disc)
20 to 40 mm: zone of inhibition at 50 µg/disc ([2]; Gardnerella vaginalis, 12 sensitive wild-type strains, metronidazole 50 μg/disc, read-out: inhibition zones for the remaining 12 strains)
35 mm: Diameter of inhibition zone per antibiotic [2, 6] | Diameter of inhibition zone per antibiotic [2, 7] | Diameter of inhibition zone per antibiotic [2, 16]
40 mm: Diameter of inhibition zone per antibiotic [2, 5]
0 mm: Diameter of inhibition zone per antibiotic [2, 4] | Diameter of inhibition zone per antibiotic [2, 9] | Diameter of inhibition zone per antibiotic [2, 10] | Diameter of inhibition zone per antibiotic [2, 11] | Diameter of inhibition zone per antibiotic [2, 12] | Diameter of inhibition zone per antibiotic [2, 13] | Diameter of inhibition zone per antibiotic [2, 14] | Diameter of inhibition zone per antibiotic [2, 15] | Diameter of inhibition zone per antibiotic [2, 17] | Diameter of inhibition zone per antibiotic [2, 19] | Diameter of inhibition zone per antibiotic [2, 20] | Diameter of inhibition zone per antibiotic [2, 21] | Diameter of inhibition zone per antibiotic [2, 26] | Diameter of inhibition zone per antibiotic [2, 27] | Diameter of inhibition zone per antibiotic [2, 28] | Diameter of inhibition zone per antibiotic [2, 29] | Diameter of inhibition zone per antibiotic [2, 30] | Diameter of inhibition zone per antibiotic [2, 31] | Diameter of inhibition zone per antibiotic [2, 32] | Diameter of inhibition zone per antibiotic [2, 33] | Diameter of inhibition zone per antibiotic [2, 34] | diameter of inhibition zone [1]
27 mm: Diameter of inhibition zone per antibiotic [2, 3]
30 mm: Diameter of inhibition zone per antibiotic [2, 22]
25 mm: Diameter of inhibition zone per antibiotic [2, 18] | Diameter of inhibition zone per antibiotic [2, 25]
32 mm: Diameter of inhibition zone per antibiotic [2, 8]
20 mm: Diameter of inhibition zone per antibiotic [2, 24] | Diameter of inhibition zone per antibiotic [2, 35]
93%: share of Biotype 5 strains completely resistant ([2]; Biotype 5, 14 of 15 strains)

CCC[C@@H]1C[C@@H](C(=O)N[C@@H]([C@H]2O[C@H](SC)[C@H](O)[C@@H](O)[C@H]2O)[C@H](C)Cl)N(C)C1 [Clindamycin]
55.45 ± 5.5 mm: Diameter of inhibition zone per antibiotic, Average ± SD [2]
50 mm: Diameter of inhibition zone per antibiotic [2, 3] | Diameter of inhibition zone per antibiotic [2, 6] | Diameter of inhibition zone per antibiotic [2, 10] | Diameter of inhibition zone per antibiotic [2, 11] | Diameter of inhibition zone per antibiotic [2, 14] | Diameter of inhibition zone per antibiotic [2, 16] | Diameter of inhibition zone per antibiotic [2, 21] | Diameter of inhibition zone per antibiotic [2, 22] | Diameter of inhibition zone per antibiotic [2, 24]
45 mm: Diameter of inhibition zone per antibiotic [2, 7] | Diameter of inhibition zone per antibiotic [2, 8]
55 mm: Diameter of inhibition zone per antibiotic [2, 5] | Diameter of inhibition zone per antibiotic [2, 12] | Diameter of inhibition zone per antibiotic [2, 15] | Diameter of inhibition zone per antibiotic [2, 19] | Diameter of inhibition zone per antibiotic [2, 20] | Diameter of inhibition zone per antibiotic [2, 23] | Diameter of inhibition zone per antibiotic [2, 25] | Diameter of inhibition zone per antibiotic [2, 27] | Diameter of inhibition zone per antibiotic [2, 32] | diameter of inhibition zone [1]
65 mm: Diameter of inhibition zone per antibiotic [2, 26] | Diameter of inhibition zone per antibiotic [2, 29] | Diameter of inhibition zone per antibiotic [2, 30]
60 mm: Diameter of inhibition zone per antibiotic [2, 4] | Diameter of inhibition zone per antibiotic [2, 9] | Diameter of inhibition zone per antibiotic [2, 13] | Diameter of inhibition zone per antibiotic [2, 17] | Diameter of inhibition zone per antibiotic [2, 18] | Diameter of inhibition zone per antibiotic [2, 28] | Diameter of inhibition zone per antibiotic [2, 31] | Diameter of inhibition zone per antibiotic [2, 33] | Diameter of inhibition zone per antibiotic [2, 34] | Diameter of inhibition zone per antibiotic [2, 35]
55.45±5.5 mm: Diameter of inhibition zone per antibiotic, Average ± SD ([2]; listed as clindamycin)

CO/N=C(\C(=O)N[C@@H]1C(=O)N2C(C(=O)O)=C(COC(C)=O)CS[C@H]12)c1csc(N)n1 [Cefotaxime]
10 mm: diameter of inhibition zone [1]
0 mm: diameter of inhibition zone (S. denitrificans YH1) | diameter of inhibition zone (L. crispatus YH2)

Cc1onc(-c2ccccc2)c1C(=O)N[C@@H]1C(=O)N2[C@@H]1SC(C)(C)[C@@H]2C(=O)O [Oxacillin]
0 mm: diameter of inhibition zone [1] | diameter of inhibition zone (S. denitrificans YH1) | diameter of inhibition zone (L. crispatus YH2)

CN[C@H](CC(C)C)C(=O)N[C@H]1C(=O)N[C@@H](CC(N)=O)C(=O)N[C@H]2C(=O)N[C@H]3C(=O)N[C@H](C(=O)N[C@H](C(=O)O)c4cc(O)cc(O)c4-c4cc3ccc4O)[C@H](O)c3ccc(c(Cl)c3)Oc3cc2cc(c3O[C@@H]2O[C@H](CO)[C@@H](O)[C@H](O)[C@H]2O[C@H]2C[C@](C)(N)[C@H](O)[C@H](C)O2)Oc2ccc(cc2Cl)[C@H]1O [Vancomycin]
35 mm: diameter of inhibition zone (S. denitrificans YH1) | diameter of inhibition zone (L. crispatus YH2)
40 mm: diameter of inhibition zone [1]

Augmentin
50 mm: Diameter of inhibition zone per antibiotic [2, 10] | Diameter of inhibition zone per antibiotic [2, 22] | Diameter of inhibition zone per antibiotic [2, 24] | Diameter of inhibition zone per antibiotic [2, 26] | Diameter of inhibition zone per antibiotic [2, 27] | Diameter of inhibition zone per antibiotic [2, 31]
60 mm: Diameter of inhibition zone per antibiotic [2, 3] | Diameter of inhibition zone per antibiotic [2, 8] | Diameter of inhibition zone per antibiotic [2, 13] | Diameter of inhibition zone per antibiotic [2, 21] | Diameter of inhibition zone per antibiotic [2, 25] | Diameter of inhibition zone per antibiotic [2, 35] | diameter of inhibition zone [1]
no strain was resistant: resistance of the G. vaginalis strains, in words ([2]; strains of Table 11)
30 mm: Diameter of inhibition zone per antibiotic [2, 15] | Diameter of inhibition zone per antibiotic [2, 28]
33 mm: Diameter of inhibition zone per antibiotic [2, 4]
45 mm: Diameter of inhibition zone per antibiotic [2, 6] | Diameter of inhibition zone per antibiotic [2, 17] | Diameter of inhibition zone per antibiotic [2, 18] | Diameter of inhibition zone per antibiotic [2, 32]
35 mm: Diameter of inhibition zone per antibiotic [2, 11] | Diameter of inhibition zone per antibiotic [2, 12] | Diameter of inhibition zone per antibiotic [2, 14] | Diameter of inhibition zone per antibiotic [2, 19] | Diameter of inhibition zone per antibiotic [2, 23]
44.9±9.5 mm: Diameter of inhibition zone per antibiotic, Average ± SD [2]
55 mm: Diameter of inhibition zone per antibiotic [2, 30]
40 mm: Diameter of inhibition zone per antibiotic [2, 5] | Diameter of inhibition zone per antibiotic [2, 7] | Diameter of inhibition zone per antibiotic [2, 9] | Diameter of inhibition zone per antibiotic [2, 16] | Diameter of inhibition zone per antibiotic [2, 20] | Diameter of inhibition zone per antibiotic [2, 29] | Diameter of inhibition zone per antibiotic [2, 33] | Diameter of inhibition zone per antibiotic [2, 34]

CC1(C)S[C@@H]2[C@H](NC(=O)[C@H](N)c3ccccc3)C(=O)N2[C@H]1C(=O)O [Ampicillin]
10 mm: diameter of inhibition zone [1]
0 mm: diameter of inhibition zone (S. denitrificans YH1) | diameter of inhibition zone (L. crispatus YH2)

Gentamicin
0 mm: diameter of inhibition zone [1] | diameter of inhibition zone (S. denitrificans YH1) | diameter of inhibition zone (L. crispatus YH2)

C[C@@H](O)[C@H]1C(=O)N2C(C(=O)O)=C(SCCN=CN)C[C@H]12 [Imipenem]
30 mm: diameter of inhibition zone (S. denitrificans YH1)
40 mm: diameter of inhibition zone [1]
25 mm: diameter of inhibition zone (L. crispatus YH2)
